Data from US12195451B2 (priority 2015, dated 2025).

Experiments:
ICP0-null HSV-N212eGFP = format: cell-based, Herpes Simplex Virus type-1 (HSV-1)
[1] = tested on: Influenza H1N1 A/Puerto Rico/8/34 (PR8); format: cell-based
[2] = tested on: adenovirus expressing firefly luciferase; test: Adenovirus transduction in normal mouse brain tissue cores; format: cell-based, Adenovirus Serotype 5; details: 10, 20 or 40 uM for 4 hours, 1×10^7 pfu/well, 36 hours post-infection
[3] = tested on: adenovirus expressing firefly luciferase; format: cell-based, Adenovirus Serotype 5
[4] = tested on: Salmonella typhimurium strains TA98 and TA100
[5] = tested on: adeno-associated virus expressing firefly luciferase; format: cell-based, AAV serotype 6
MVA-eGFP = format: cell-based, modified vaccine ankara (MVA); details: human renal carcinoma (786-0) cells; infected after 4 hours, MOI 0.01; 48 h and 64 h after infection
[6] = tested on: adenovirus expressing firefly luciferase; test: Adenovirus transduction in normal mouse muscle tissue cores; format: cell-based, Adenovirus Serotype 5; details: 10, 20 or 40 uM for 4 hours, 1×10^7 pfu/well, 36 hours post-infection
[7] = tested on: adenovirus expressing firefly luciferase; test: Adenovirus transduction in A549 cancer cells (MOI 0.1, luciferase luminescence); format: cell-based, Adenovirus Serotype 5; details: pre-treated 2 hours at 21 uM to 120 or 160 uM, 40 hours post-infection
A/FM1 (H1N1) = tested on: A/FM1 (H1N1); set-up: species or system Influenza A H1N1; details: in vivo
IFN-responsive promoter = details: cited from earlier work
[8] = tested on: IFN-responsive U251 human glioma cells; details: cited from earlier work
[9] = tested on: virus-induced cellular genes; details: gene expression microarrays; cited from earlier work
[10] = tested on: VSV-Maraba-MG1-eGFP virus; format: cell-based, Maraba MG-1

| SMILES | HSV-1 replication (eGFP fluorescence and HSV titers) (ICP0-null HSV-N212eGFP) | Adenovirus transduction in normal brain tissue [2] | adenovirus vector production (luciferase activity, fold increase vs untreated) [3] | adeno-associated virus vector production (luciferase activity, fold increase vs untreated) [5] | MVA vaccine strain infection of cells (eGFP fluorescence) (MVA-eGFP) | Adenovirus transduction in normal muscle tissue [6] | Adenovirus transduction in cancer cells (fold increase luciferase luminescence vs adenovirus alone) [7] | other results |
| --- | --- | --- | --- | --- | --- | --- | --- | --- |
| COc1ccccc1CN1C(=O)C(Cl)=C(Cl)C1O (stereo not drawn) [CM01025, 3,4-Dichloro-5-hydroxy-1-(2-methoxy-benzyl)-1,5-dihydro-pyrrol-2-one] | enhance Herpes Simplex Virus type-1 (HSV-1) replication | – | – | – | – | – | – | – |
| CN1C(=O)C(Cl)=C(Cl)C1O (stereo not drawn) [CM01031, 3,4-Dichloro-5-hydroxy-1-methyl-1,5-dihydro-pyrrol-2-one] | – | – | – | – | – | – | – | PR8 titers, MDCK (NBL-2) cells [1]: Enhancement of PR8; PR8 titers, MDCK.2 cells [1]: Enhancement of PR8 |
| O=C1C(Cl)=C(Cl)C(O)N1Cc1ccccc1 (stereo not drawn) [MD01145, α,β-dichloro-γ-hydroxy-N-benzyl-crotonic lactam] | enhance Herpes Simplex Virus type-1 (HSV-1) replication | enhance Adenovirus transduction | enhance the production | enhance the production | can be enhanced | enhance adenovirus transduction | – | dose-dependent increase in the number of revertants [4]: does not produce a dose-dependent increase; mutagenic potential [4]: not mutagenic |
| C#CCN1C(=O)C(Cl)=C(Cl)C1O (stereo not drawn) [MD01151, 3,4-Dichloro-5-hydroxy-1-prop-2-ynyl-1,5-dihydro-pyrrol-2-one] | enhance Herpes Simplex Virus type-1 (HSV-1) replication | – | – | – | can be enhanced | – | enhance Adenovirus transduction | – |
| O=c1[nH]ncc(Cl)c1Cl [MD02026, 4,5-Dichloro-2H-pyridazin-3-one] | – | enhance Adenovirus transduction | enhance the production | enhance the production | can be enhanced | enhance adenovirus transduction | – | – |
| O=C1C(Cl)=C(Cl)C(O)N1CCc1ccccc1 (stereo not drawn) [MD03009, 3,4-dichloro-5-hydroxy-1-phenethyl-1H-pyrrol-2(5H)-one] | – | – | – | – | can be enhanced | – | enhance Adenovirus transduction | – |
| O=C1C(Cl)=C(Cl)C(O)N1CCN1CCOCC1 (stereo not drawn) [MD03011, 3,4-dichloro-5-hydroxy-1-(2-morpholinoethyl)-1H-pyrrol-2(5H)-one] | – | enhance Adenovirus transduction | – | – | can be enhanced | enhance adenovirus transduction | enhance Adenovirus transduction | A/FM1 (H1N1) production in ovo (plaque assay titer, HA titer by HPLC AUC) (A/FM1 (H1N1)): enhances A/FM1 (H1N1) production |
| COS(C)(=O)=O [MMS, methyl methanesulfonate, reference compound] | – | – | – | – | – | – | – | reversion rate (number of revertants) [4]: high number of revertants |
| O=C1OC(c2ccccc2)C(Cl)=C1Cl (stereo not drawn) [VSe1, 3,4-dichloro-5-phenyl-2,5-dihydrofuran-2-one, reference compound] | enhance Herpes Simplex Virus type-1 (HSV-1) replication | – | enhance the production | enhance the production | can be enhanced | – | enhance Adenovirus transduction | IFN-induced transcriptional activity (IFN-responsive promoter): inhibit IFN-induced transcriptional activity; IFN-mediated protection of cells to VSVΔ51 infection [8]: suppress IFN-mediated protection; virus-induced cellular genes whose transcription is repressed [9]: > 95%; replication / spread of oncolytic virus MG1 (eGFP expression) [10]: enhance the replication |
